Reference: patent publication US20220251141A1, “IMMUNOMODULATORS” (Bristol-Myers Squibb Company, priority 2019, published 2022)
Bridge positions count the residues as written; N and C are the ends. Square brackets hold non-standard residues; d marks the D form. Peptide text beside a SMILES is read from it. * marks the point of attachment. Trp(1-CH2COOH) = N[C@@H](Cc1cn(CC(=O)O)c2ccccc12)C(=O)O; Trp(1-Me) = Cn1cc(C[C@H](N)C(=O)O)c2ccccc21; Phe(4-F) = N[C@@H](Cc1ccc(F)cc1)C(=O)O; Hyp = O=C(O)[C@@H]1C[C@@H](O)CN1; NMeNle = CCCC[C@H](NC)C(=O)O; NMeC = CN[C@@H](CS)C(=O)O; Pip = O=C(O)[C@@H]1CCCCN1; Dab = NCC[C@H](N)C(=O)O; Dap = NC[C@H](N)C(=O)O; Piv = CC(C)(C)C(=O)*

Target: T1, PD-1/PD-L1 (Homo sapiens, UniProt Q9NZQ7)
T1 construct: TVMV protease site linker (C); made in house; host or cells: HEK293T cells
Assay: PD-1/PD-L1 Homogenous Time-Resolved Fluorescence (HTRF) binding assay
Conditions: PD-L1-His 10 nM final, PD-1-Ig 20 nM final; inhibitors pre-incubated with PD-L1-His for 15 m
Outline: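 Compounds pre-incubated 15 min with human PD-L1(18-239)-His (10 nM final), then PD-1(25-167)-Ig (20 nM final) added for 15 min, in dPBS with 0.1% BSA and 0.05% Tween-20. Eu-cryptate anti-Ig (1 nM) and APC anti-His (20 nM) added, 30 min equilibration, 665/620 nm ratio read; IC50 reported.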

CCCC[C@H]1C(=O)N(C)[C@@H](CCCC)C(=O)N[C@@H](CCC(=O)O)C(=O)N[C@H](C(N)=O)CSCC(=O)N[C@@H](Cc2ccc(F)cc2)C(=O)N2CCCC[C@H]2C(=O)N[C@@H](CC(=O)O)C(=O)N2CCC[C@H]2C(=O)N[C@@H](CNC(=O)C(C)(C)C)C(=O)N[C@@H](CC(C)C)C(=O)N2C[C@H](O)C[C@H]2C(=O)N[C@@H](Cc2c[nH]c3ccccc23)C(=O)N[C@@H](CCNC(=O)C(C)(C)C)C(=O)N[C@@H](Cc2cn(C)c3ccccc23)C(=O)N1C [Example 20290] ({CH2CO}-[Phe(4-F)][Pip]DP[Dap](Piv)L[Hyp]W[Dab](Piv)[Trp(1-Me)][NMeNle][NMeNle]EC-NH2; thioether N-14)
IC50: 70.1 nM

CCCC[C@H]1C(=O)N(C)[C@@H](CCCC)C(=O)N[C@@H](CC(C)C)C(=O)N[C@H](C(N)=O)CSCC(=O)N[C@@H](Cc2ccc(F)cc2)C(=O)N2CCCC[C@H]2C(=O)N[C@@H](CC(N)=O)C(=O)N2CCC[C@H]2C(=O)N[C@@H](CNC(=O)C(C)(C)C)C(=O)N[C@@H](CC(C)C)C(=O)N2C[C@H](O)C[C@H]2C(=O)N[C@@H](Cc2c[nH]c3ccccc23)C(=O)N[C@@H](CCN)C(=O)N[C@@H](Cc2cn(CC(=O)O)c3ccccc23)C(=O)N1C [Example 20300] ({CH2CO}-[Phe(4-F)][Pip]NP[Dap](Piv)L[Hyp]W[Dab][Trp(1-CH2COOH)][NMeNle][NMeNle]LC-NH2; thioether N-14)
IC50: 38.2 nM

CCCC[C@H]1C(=O)N(C)[C@@H](CCCC)C(=O)N[C@@H](CC(C)C)C(=O)N(C)[C@H](C(N)=O)CSCC(=O)N[C@@H](Cc2ccc(F)cc2)C(=O)N2CCCC[C@H]2C(=O)N[C@@H](CC(=O)N(C)C)C(=O)N2CCC[C@H]2C(=O)N[C@@H](CNC(=O)C(C)(C)C)C(=O)N[C@@H](CC(C)C)C(=O)N2C[C@H](O)C[C@H]2C(=O)N[C@@H](Cc2c[nH]c3ccccc23)C(=O)N[C@@H](CO)C(=O)N[C@@H](Cc2cn(CC(=O)O)c3ccccc23)C(=O)N1C [Example 20310] ({CH2CO}-[Phe(4-F)][Pip]D(NMe2)P[Dap](Piv)L[Hyp]WS[Trp(1-CH2COOH)][NMeNle][NMeNle]L[NMeC]-NH2; thioether N-14)
IC50: 18 nM
